Peptide text beside a SMILES is read from it.

For 7 compounds, IC50 and inhibition results are on record in publication PMC12133982, “Predominant T-cell epitopes of SARS-CoV-2 restricted by multiple prevalent HLA-B and HLA-C allotypes in Northeast Asia” (Frontiers in Immunology, 2025).

One test addresses HLA-C0401 (Homo sapiens, UniProt P10321, A176E/A330V/A35S/A73E/C25G/C350S/D138N/D33S/E299K/L171W/L180R/L218V/M285V/M309V/M331V/N104K/P208H/Q277E/Q291P/R243W/R38W/S101N/S123F/S140F/S297R/S48A/T329A/T363A/V319A/V327M). The test is described as follows: Competitive peptide binding assay, CIR-C0401. The settings on record: HMy2.CIR-C0401 cells, reference Cy5-[…], class from inhibition at 5 and 15 μM, flow cytometry MFI; read-out: Binding affinity with HLA-C0401. The protocol: (§1) Then, competitive peptide binding assays were performed.
(In general: A flow cytometer gives signals particle by particle.)

The target of another test is HLA-C0102 (Homo sapiens, UniProt P10321, A176E/A330V/A35S/A97T/C350S/D114A/D33F/L171W/L180R/L218V/M285V/M309V/M331V/P208H/Q277E/Q291P/R121W/R243W/R30K/S123C/S140Y/S297R/T329A/T363A/V272M/V319A). The test is described as follows: Competitive peptide binding assay, CIR-C0102. The settings on record: for IC50: HMy2.CIR-C0102 cells, reference Cy5-[…], class from inhibition at 5 and 15 μM, flow cytometry MFI, read-out: Binding affinity with HLA-C0102. The protocol:
as §1

The target in the next test is HLA-C0302 (Homo sapiens, UniProt P10321, A176E/A330V/A97T/C25G/C350S/D114A/D33Y/E197K/L127V/L171W/L218V/M285V/M309V/M331V/P208H/Q277E/Q291P/R243W/R45H/S123Y/S297R/S48A/T118I/T187L/T329A/T363A/V319A). The test is described as follows: Competitive peptide binding assay, CIR-C0302. Particulars: HMy2.CIR-C0302 cells, reference Cy5-[…], class from inhibition at 5 and 15 μM, flow cytometry MFI; read-out: Binding affinity with HLA-C0302. How it is done:
as §1

The next test has as its target HLA-C1402 (Homo sapiens, UniProt P10321, A176E/A330V/A35S/A97T/C350S/D114A/D33S/L171W/L180R/L218V/M285V/M309V/M331V/P208H/Q277E/Q291P/R121W/R243W/S123F/S297R/S48A/T329A/T363A/V319A). The test is described as follows: Competitive peptide binding assay, CIR-C1402. Particulars: HMy2.CIR-C1402 cells, reference Cy5-[…], class from inhibition at 5 and 15 μM, flow cytometry MFI; read-out: Binding affinity with HLA-C1402. How it is done:
as §1

The next test deals with HLA-C0602 (Homo sapiens, UniProt P10321, A176E/A330V/C350S/L171W/L180W/L218V/M285V/M309V/M331V/N104K/P208H/Q277E/Q291P/R121W/S101N/S123Y/S297R/T329A/T363A/V319A/V328M). The test is described as follows: Competitive peptide binding assay, CIR-C0602.
The target in a further test is HLA-C0702 (Homo sapiens, UniProt P10321). The test is described as follows: Competitive peptide binding assay, CIR-C0702.
The target in a further test is HLA-B4001 (Homo sapiens, UniProt P01889, A65T/A93T/A95T/D138N/D98Y/E176V/E69K/N87E/Q56L/Q94N/R180L/S121R/S35A/S48T/T167S/V36M/W171L/Y33H/Y91S). The test is described as follows: Competitive peptide binding assay, CIR-B4001. The settings on record: HMy2.CIR-B4001 cells, reference Cy5-[…], class from inhibition at 5 and 15 μM, flow cytometry MFI; read-out: Binding affinity with HLA-B4001. The protocol: as §1

In a further test the target is HLA-B3501 (Homo sapiens, UniProt P01889, A329T/A93T/A95T/C349S/D201E/D98Y/E176V/E187L/E204Q/E69T/I218V/K202T/L119I/Q94N/R155S/R180L/S121R/S35A/S48A/T118I/V127L/V306I/V36M/Y140S/Y91F). The test is described as follows: Competitive peptide binding assay, CIR-B3501. The settings on record: HMy2.CIR-B3501 cells, reference Cy5-[…], class from inhibition at 5 and 15 μM, flow cytometry MFI; read-out: Binding affinity with HLA-B3501. The protocol: as §1

A further test addresses HLA-B5801 (Homo sapiens, UniProt P01889, A329T/C349S/D201E/D98Y/E176V/E187L/E204Q/E69T/G107R/I218V/I90N/K202T/L105A/L119I/N104I/N87E/Q89R/Q94S/R106L/R155S/R180L/R86G/S101N/S121R/S35A/S48A/T118I/V127L/V306I/V36M/Y140S/Y91M). The test is described as follows: Competitive peptide binding assay, CIR-B5801. Particulars: HMy2.CIR-B5801 cells, reference Cy5-[…], class from inhibition at 5 and 15 μM, flow cytometry MFI; read-out: Binding affinity with HLA-B5801. How it is done:
as §1

The target of another test is HLA-B1301 (Homo sapiens, UniProt P01889, A65T/A93T/A95T/D138N/D201E/D98Y/E176V/E204Q/E69M/E70A/G107R/K202T/L105A/L119I/N104T/N87E/Q94N/R106L/R155S/R169L/R180L/S101N/S121R/S35A/S48T/T118I/V127L/V36M/Y140L/Y91S). The test is described as follows: Competitive peptide binding assay, CIR-B1301. Particulars: HMy2.CIR-B1301 cells, reference Cy5-[…], class from inhibition at 5 and 15 μM, flow cytometry MFI; read-out: Binding affinity with HLA-B1301. The protocol:
as §1

In the next test the target is HLA-B4601 (Homo sapiens, UniProt P01889, A329T/A93R/C349S/D201E/E100V/E187L/E204Q/E69M/E70A/I90K/K202T/N87E/R155S/R180W/S121R/S35A/S48A/V306I/V36M/Y140S). The test is described as follows: Competitive peptide binding assay, CIR-B4601. The settings on record: for IC50: HMy2.CIR-B4601 cells, reference Cy5-[…], class from inhibition at 5 and 15 μM, flow cytometry MFI, read-out: Binding affinity with HLA-B4601. The protocol:
as §1

Another test addresses HLA-B1302 (Homo sapiens, UniProt P01889, A65T/A93T/A95T/D138N/D201E/D98Y/E176V/E204Q/E69M/E70A/G107R/K202T/L105A/L119W/N104T/N87E/Q94N/R106L/R155S/R169L/R180L/S101N/S121T/S35A/S48T/V127L/V36M/Y140L/Y91S). The test is described as follows: Competitive peptide binding assay, CIR-B1302. Particulars: HMy2.CIR-B1302 cells, reference Cy5-MMWYWGPSL, class from inhibition at 5 and 15 μM, flow cytometry MFI; read-out: Binding affinity with HLA-B1302. How it is done: as §1

A further test deals with HLA-C0801 (Homo sapiens, UniProt P10321, A176T/A330V/A97T/C350S/D114A/D138N/D33Y/E201K/E299G/L171W/L218V/M285V/M309V/M331V/P208H/Q277E/Q291P/R59Q/S123Y/S140F/S297R/S48A/T329A/T363A/V319A/V328M). The test is described as follows: Competitive peptide binding assay, CIR-C0801. Particulars: HMy2.CIR-C0801 cells, reference Cy5-[…], class from inhibition at 5 and 15 μM, flow cytometry MFI; read-out: Binding affinity with HLA-C0801. How it is done: as §1

Another test concerns the target HLA-B1501 (Homo sapiens, UniProt P01889, A329T/A93T/A95T/C349S/D201E/D98Y/E187L/E204Q/E69M/E70A/K202T/N87E/Q94N/R155S/R180W/S121R/S35A/S48A/V306I/V36M/Y140S/Y91S). The test is described as follows: Competitive peptide binding assay, CIR-B1501. The settings on record: HMy2.CIR-B1501 cells, reference Cy5-[…], class from inhibition at 5 and 15 μM, flow cytometry MFI; read-out: Binding affinity with HLA-B1501. The protocol:
as §1

For the next test, the target named is HLA-B1502 (Homo sapiens, UniProt P01889, A329T/A93T/A95T/C349S/D201E/D98Y/E187L/E204Q/E69M/E70A/H137Y/K202T/L119I/Q94N/R155S/R180L/S121R/S35A/S48A/T118I/V306I/V36M/Y140S/Y91S). The test is described as follows: Competitive peptide binding assay, CIR-B1502. The settings on record: HMy2.CIR-B1502 cells, reference Cy5-[…], class from inhibition at 5 and 15 μM, flow cytometry MFI; read-out: Binding affinity with HLA-B1502. How it is done: as §1

[1] abbreviates: read-out: Inhibition % of Cy5-reference peptide binding.

On to `CC[C@H](C)[C@H](NC(=O)[C@@H](NC(=O)[C@@H](N)CO)[C@@H](C)CC)C(=O)N[C@@H](C)C(=O)N[C@@H](Cc1ccc(O)cc1)C(=O)N[C@H](C(=O)N[C@@H](CCSC)C(=O)N[C@@H](CO)C(=O)N[C@@H](CC(C)C)C(=O)O)[C@@H](C)O` [Epitope M86] (H-SIIAYTMSL-OH; N-terminus and C-terminus assumed), for which the IC50 at HLA-C0401 is 5 to 15 µM; on HLA-C0102, 5 to 15 µM; at HLA-C0302, above 15 µM; on HLA-C1402, above 15 µM.

Turning to `CC[C@H](C)[C@H](NC(=O)[C@H](CC(N)=O)NC(=O)[C@H](CC(=O)O)NC(=O)[C@H](CO)NC(=O)[C@H](CO)NC(=O)[C@@H](N)CO)C(=O)N[C@@H](C)C(=O)N[C@@H](CC(C)C)C(=O)N[C@@H](CC(C)C)C(=O)O` [Epitope M111] (H-SSSDNIALL-OH; N-terminus and C-terminus assumed), the IC50 is below 5 µM on HLA-C0401; 5 to 15 µM on HLA-C0602; above 15 µM on HLA-C0102; above 15 µM on HLA-C0702; above 15 µM on HLA-C1402. Besides, the inhibition (in general, the relative decrease from the control value, in per cent) at 5 µM on HLA-C0102 (setting [1]) worked out at 30.9%. The inhibition at 15 µM at HLA-C0102 (setting [1]) was determined as 47.1%.

With `CC[C@H](C)[C@H](NC(=O)[C@@H]1CCCN1C(=O)[C@H](CCSC)NC(=O)[C@H](CC(C)C)NC(=O)[C@H](CC(C)C)NC(=O)[C@H](CO)NC(=O)[C@H](Cc1ccc(O)cc1)NC(=O)[C@@H](N)Cc1ccc(O)cc1)C(=O)N[C@@H](CC(C)C)C(=O)O` [Epitope M95], the IC50 on HLA-C0602 was above 15 µM; at HLA-C0102 it was 5 to 15 µM; at HLA-C0702 it was above 15 µM; on HLA-C1402, 5 to 15 µM.

As for `CC[C@H](C)[C@H](NC(=O)[C@@H](NC(=O)CNC(=O)[C@H](CC(N)=O)NC(=O)[C@H](CO)NC(=O)[C@H](CC(=O)O)NC(=O)[C@H](C)N)[C@@H](C)O)C(=O)N[C@H](C(=O)N[C@H](C(=O)O)C(C)C)[C@@H](C)O` [Epitope Y216] (H-ADSNGTITV-OH; N-terminus and C-terminus assumed), the IC50 at HLA-B4001 was 5 to 15 µM; at HLA-B3501 it was above 15 µM; on HLA-B5801, 5 to 15 µM; on HLA-B1301, above 15 µM; at HLA-B4601 it was above 15 µM; on HLA-B1302 it was above 15 µM.

Turning to `CC(C)[C@H](NC(=O)CNC(=O)[C@H](Cc1c[nH]cn1)NC(=O)[C@@H]1CCCN1C(=O)[C@H](C)NC(=O)[C@H](CO)NC(=O)[C@@H](N)CCC(N)=O)C(=O)N[C@H](C(=O)N[C@@H](Cc1ccccc1)C(=O)O)C(C)C` [Epitope M69] (H-QSAPHGVVF-OH; N-terminus and C-terminus assumed), the IC50 at HLA-C0801, at HLA-C0401, at HLA-C0602, at HLA-C0102 and at HLA-C1402 was above 15 µM each time.

On to `CC[C@H](C)[C@H](NC(=O)[C@H](C)NC(=O)[C@H](C)NC(=O)[C@H](CC(N)=O)NC(=O)[C@H](CC(N)=O)NC(=O)[C@H](C)NC(=O)[C@@H]1CCCN1C(=O)[C@H](CC(N)=O)NC(=O)[C@H](CCCNC(=N)N)NC(=O)[C@@H](N)[C@@H](C)O)C(=O)O` [Epitope M117] (H-TRNPANNAAI-OH; N-terminus and C-terminus assumed), for which the IC50 on HLA-C0602 was below 5 µM; on HLA-C0102, above 15 µM; on HLA-C0702 it was below 5 µM; on HLA-C1402, above 15 µM. In addition, the inhibition at 5 µM at HLA-C0102 (setting [1]) came out at 21%.

Consider `CC(C)C[C@H](NC(=O)[C@H](CC(C)C)NC(=O)[C@H](CC(C)C)NC(=O)[C@H](CC(N)=O)NC(=O)[C@H](CO)NC(=O)[C@H](CS)NC(=O)[C@H](CCC(=O)O)NC(=O)[C@@H](N)[C@@H](C)O)C(=O)N[C@@H](CCC(N)=O)C(=O)N[C@@H](Cc1ccc(O)cc1)C(=O)O` [Epitope Y231] (H-TECSNLLLQY-OH; N-terminus and C-terminus assumed), for which the IC50 was above 15 µM on HLA-B4001; 5 to 15 µM on HLA-B1301; above 15 µM at HLA-B1501; below 5 µM on HLA-B4601; above 15 µM at HLA-B1302; above 15 µM at HLA-B1502. Further, the inhibition at 5 µM on HLA-B4601 (read-out: Inhibition % of Cy5-reference peptide binding, CIR-B4601, 5μM peptide) is 73.8%. The inhibition at 15 µM on HLA-B4601 (read-out: Inhibition % of Cy5-reference peptide binding, CIR-B4601, 15μM peptide) came to 89.3%.
